According to US7951538B2, “Method to determine the risk for side effects of an SSRI treatment in a person” (The Board of Trustees of the Leland Stanford Junior …, priority 2001, dated 2011):

What was measured:
[1] = system: patients with major depression; assay: Improvement in mood on the Hamilton Depression Rating Scale over the 8 week treatment period; format: in vivo, human; conditions: not affected by the 102 T/C polymorphism
Experimental: (§1) All subjects were 65 years of age or older and had been free of 10 major medical problems for at least 3 months. […] Patients were excluded for clinically significant laboratory abnormalities, drug or alcohol abuse, psychosis, recent suicide attempt, and psychiatric conditions other than major depression, or treatment with antidepressant medications within 7 days of commencing the study.
On day 14, doses were increased to 30 mg once daily. […] All patients Were genotype for the 102 T/C polymorphism using the method described above.

[2] = system: patients with major depression; conditions: human, in vivo
Text: as §1
Genomic DNA was extracted from EDTA-treated whole blood using the Puregene DNA extraction kit (Gentra Systems). Genotype for the 102 T/C DNA sequence polymorphism in the 5-HT2A receptor gene was determined using the method of Du et al. (Am J Med Genet. 2000 Feb. 7;96(1):56-60). […]
Discontinuations were classified as due to any event, and as due to an adverse event. […] Body weight was determined at baseline and at each subsequent visit. Actual medication taken Was determined by counting the number of tablets remaining at each clinic visit. Dosing compliance was determined by as total number of medication doses taken divided by total number of capsules given. […]

Compound: CN1CCN2c3ncccc3Cc3ccccc3C2C1 (stereo not drawn) [mirtazapine]
- improvement in mood (decreased depression), Hamilton Depression Rating Scale [1]: statistically significant improvement
- probability of discontinuing treatment due to side effects [2]: no greater probability
- severity of side effects [2]: no greater severity
